Experimental data: the supplement of paper PMC13207355

Key:
Details in all cases: exposure time: 72 h
E21 [1] = patient-derived glioblastoma stem cells of mesenchymal subtype; experiment: surviving fraction (nuclei count normalised to DMSO); higher = more cells surviving (less toxic)
E13 [2] = patient-derived glioblastoma stem cells of classical subtype; experiment: as above
FT3469 [3] = normal neural stem cell line; experiment: as above
E34 [4] = patient-derived glioblastoma stem cells of proneural subtype; experiment: as above
E28 [5] = patient-derived glioblastoma stem cells of classical subtype; experiment: as above
E31 [6] = patient-derived glioblastoma stem cells of proneural subtype; experiment: as above
E57 [7] = patient-derived glioblastoma stem cells of mesenchymal subtype; experiment: as above
E21 [8] = experiment: phenotypic distance (Euclidean, principal components) from DMSO controls (arbitrary units); higher = stronger morphological change
E13 [9] = experiment: as above
FT3469 [10] = experiment: as above
E34 [11] = experiment: as above
E28 [12] = experiment: as above
E31 [13] = experiment: as above
E57 [14] = experiment: as above
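Throughout, for phenotypic distance (Euclidean, principal components) from DMSO controls: cell Painting imaging in 384-well plates, CellProfiler features reduced to at least 20 principal components, Euclidean distance versus same-plate DMSO vehicle wells (0.1% v/v), median over six images per well.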
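Throughout, for surviving fraction (nuclei count normalised to DMSO): nuclei counted by high-content imaging of Hoechst-stained cells in laminin-coated 384-well plates, relative to 0.1% DMSO vehicle wells, with staurosporine as cell-death control.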

CNc1ccc2oc(C[C@H]3O[C@@]4(CC[C@H]3C)O[C@H]([C@H](C)C(=O)c3ccc[nH]3)[C@H](C)C[C@H]4C)nc2c1C(=O)O [Calcimycin]
Details | phenotypic distance | surviving fraction
E13 [2], 4.1 nM | – | 0.894
E13 [2], 12.3 nM | – | 0.814
E13 [2], 37 nM | – | 0.678
E13 [2], 111.1 nM | – | 0.576
E13 [2], 333.3 nM | – | 0.266
E13 [2], 1000 nM | – | 0.11
E13 [2], 3000 nM | – | 0.061
E13 [9], 4.1 nM | 1 | –
E13 [9], 12.3 nM | 0.71 | –
E13 [9], 37 nM | 1.46 | –
E13 [9], 111.1 nM | 3.31 | –
E13 [9], 333.3 nM | 6.79 | –
E13 [9], 1000 nM | 7.97 | –
E13 [9], 3000 nM | 8.33 | –
E21 [1], 4.1 nM | – | 0.98
E21 [1], 12.3 nM | – | 0.993
E21 [1], 37 nM | – | 0.951
E21 [1], 111.1 nM | – | 0.887
E21 [1], 333.3 nM | – | 0.438
E21 [1], 1000 nM | – | 0.0684
E21 [1], 3000 nM | – | 0.00892
E21 [8], 4.1 nM | 0.571 | –
E21 [8], 12.3 nM | 0.699 | –
E21 [8], 37 nM | 0.538 | –
E21 [8], 111.1 nM | 1.96 | –
E21 [8], 333.3 nM | 7.08 | –
E21 [8], 1000 nM | 8.73 | –
E21 [8], 3000 nM | 12.7 | –
E28 [5], 4.1 nM | – | 1.07
E28 [5], 12.3 nM | – | 1.19
E28 [5], 37 nM | – | 0.999
E28 [5], 111.1 nM | – | 0.82
E28 [5], 333.3 nM | – | 0.391
E28 [5], 1000 nM | – | 0.0896
E28 [5], 3000 nM | – | 0.0448
E28 [12], 4.1 nM | 0.698 | –
E28 [12], 12.3 nM | 0.777 | –
E28 [12], 37 nM | 0.856 | –
E28 [12], 111.1 nM | 1.27 | –
E28 [12], 333.3 nM | 2.95 | –
E28 [12], 1000 nM | 5.6 | –
E28 [12], 3000 nM | 6.55 | –
E31 [6], 4.1 nM | – | 0.918
E31 [6], 12.3 nM | – | 0.898
E31 [6], 37 nM | – | 1
E31 [6], 111.1 nM | – | 0.786
E31 [6], 333.3 nM | – | 0.259
E31 [6], 1000 nM | – | 0.00976
E31 [6], 3000 nM | – | 0.00976
E31 [13], 4.1 nM | 0.62 | –
E31 [13], 12.3 nM | 0.642 | –
E31 [13], 37 nM | 0.72 | –
E31 [13], 111.1 nM | 2.33 | –
E31 [13], 333.3 nM | 7.91 | –
E31 [13], 1000 nM | 11 | –
E31 [13], 3000 nM | 10.4 | –
E34 [4], 4.1 nM | – | 0.804
E34 [4], 12.3 nM | – | 0.991
E34 [4], 37 nM | – | 0.946
E34 [4], 111.1 nM | – | 0.787
E34 [4], 333.3 nM | – | 0.467
E34 [4], 1000 nM | – | 0.381
E34 [4], 3000 nM | – | 0.143
E34 [11], 4.1 nM | 1.43 | –
E34 [11], 12.3 nM | 1.06 | –
E34 [11], 37 nM | 1.29 | –
E34 [11], 111.1 nM | 1.9 | –
E34 [11], 333.3 nM | 5.09 | –
E34 [11], 1000 nM | 6.74 | –
E34 [11], 3000 nM | 8.56 | –
E57 [7], 4.1 nM | – | 1.07
E57 [7], 12.3 nM | – | 0.989
E57 [7], 37 nM | – | 0.871
E57 [7], 111.1 nM | – | 0.561
E57 [7], 333.3 nM | – | 0.201
E57 [7], 1000 nM | – | 0.0743
E57 [7], 3000 nM | – | 0.0336
E57 [14], 4.1 nM | 1.32 | –
E57 [14], 12.3 nM | 0.365 | –
E57 [14], 37 nM | 1.3 | –
E57 [14], 111.1 nM | 3.84 | –
E57 [14], 333.3 nM | 7.84 | –
E57 [14], 1000 nM | 9.39 | –
E57 [14], 3000 nM | 9.11 | –
FT3469 [3], 4.1 nM | – | 1.05
FT3469 [3], 12.3 nM | – | 0.987
FT3469 [3], 37 nM | – | 0.999
FT3469 [3], 111.1 nM | – | 0.849
FT3469 [3], 333.3 nM | – | 0.578
FT3469 [3], 1000 nM | – | 0.25
FT3469 [3], 3000 nM | – | 0.118
FT3469 [10], 4.1 nM | 1.09 | –
FT3469 [10], 12.3 nM | 0.726 | –
FT3469 [10], 37 nM | 1.32 | –
FT3469 [10], 111.1 nM | 1.82 | –
FT3469 [10], 333.3 nM | 3.73 | –
FT3469 [10], 1000 nM | 6.31 | –
FT3469 [10], 3000 nM | 5.79 | –
